Reference: patent publication US10167279B2 (NOVARTIS AG, priority 2014, dated 2019)

target: C-Raf FL (Homo sapiens (Human), UniProt P04049, Y340E/Y341E); assay: In vitro Raf activity determination (Alpha Screen, phospho-MEK), C-Raf FL (full length, Y340E/Y341E); format: biochemical; conditions: ATP 1 μM; 60 min pre-incubation; 1 hour reaction; column head does not say FL or TR
Summary of the method: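 Read-out is AlphaScreen luminescence using rabbit anti-p-MEK with protein A beads after EDTA stop, with IC50 fitted by non-linear regression. Reaction: Sf9-derived C-Raf plus biotinylated E. coli MEK1 K97R substrate, pH 7.5 Tris/MgCl2/DTT buffer, compound preincubated 60 min at room temperature.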

Chain of C-Raf FL (P04049 whole entry Y340E/Y341E): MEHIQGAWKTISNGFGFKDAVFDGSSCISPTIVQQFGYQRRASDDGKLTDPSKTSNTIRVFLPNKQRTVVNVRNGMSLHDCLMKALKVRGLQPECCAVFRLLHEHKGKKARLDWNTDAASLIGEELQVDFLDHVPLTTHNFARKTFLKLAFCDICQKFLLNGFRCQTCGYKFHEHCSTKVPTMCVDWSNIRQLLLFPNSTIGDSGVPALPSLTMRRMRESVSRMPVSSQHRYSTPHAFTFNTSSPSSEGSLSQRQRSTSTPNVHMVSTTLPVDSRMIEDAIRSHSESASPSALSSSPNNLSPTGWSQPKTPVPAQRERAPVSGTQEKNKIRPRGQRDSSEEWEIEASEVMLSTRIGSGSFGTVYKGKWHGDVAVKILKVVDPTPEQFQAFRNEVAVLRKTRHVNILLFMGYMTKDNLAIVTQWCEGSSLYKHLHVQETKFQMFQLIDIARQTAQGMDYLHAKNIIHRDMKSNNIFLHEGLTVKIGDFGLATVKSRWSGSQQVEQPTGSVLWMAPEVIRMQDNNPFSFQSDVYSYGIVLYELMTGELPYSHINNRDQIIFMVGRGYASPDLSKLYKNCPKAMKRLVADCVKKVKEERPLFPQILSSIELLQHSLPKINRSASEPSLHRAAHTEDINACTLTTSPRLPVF
Chain of C-Raf FL (P63104 whole entry partner): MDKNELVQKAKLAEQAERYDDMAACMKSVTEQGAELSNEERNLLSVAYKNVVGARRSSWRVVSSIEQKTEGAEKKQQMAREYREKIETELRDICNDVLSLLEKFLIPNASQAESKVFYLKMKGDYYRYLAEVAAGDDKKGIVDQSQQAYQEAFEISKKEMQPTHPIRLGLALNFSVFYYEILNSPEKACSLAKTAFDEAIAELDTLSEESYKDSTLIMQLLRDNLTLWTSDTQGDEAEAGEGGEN

SMILES	IC50 [pM]
COC1(c2cc(-c3cc(NC(=O)c4ccnc(C(C)(C)F)c4)cnc3C)cnc2OCCO)COC1 [Example 61, 2-(2-fluoropropan-2-yl)-N-(6′-(2-hydroxyethoxy)-5′-(3-methoxyoxetan-3-yl)-2-methyl-[3,3′-bipyridin]-5-yl)isonicotinamide]	1320
Cc1nc2cc(C3CCOCC3)cc(-c3cc(NC(=O)c4ccnc(C(C)(F)F)c4)ccc3C)c2[nH]1 [Example 222, 2-(1,1-difluoroethyl)-N-(4-methyl-3-(2-methyl-5-(tetrahydro-2H-pyran-4-yl)-1H-benzo[d]imidazol-7-yl)phenyl) isonicotinamide]	400
COC1(c2cc(-c3cc(NC(=O)c4cc(C(F)(F)F)ccn4)ccc3C)cc(NCCO)n2)COC1 [Example 154, N-(3-(2-((2-hydroxyethyl)amino)-6-(3-methoxyoxetan-3-yl)pyridin-4-yl)-4-methylphenyl)-4-(trifluoromethyl)picolin-amide]	40
CCOc1ncc(-c2cc(NC(=O)c3cnnc(C(C)(C)C#N)c3)cnc2C)cc1C1CCOCC1 [Example 161]	2000
CCOc1nnc(-c2cc(NC(=O)c3cnc(C(F)(F)F)cn3)ccc2C)cc1C1CCOCC1 [Example 230, N-(3-(6-ethoxy-5-(tetrahydro-2H-pyran-4-yl)pyridazin-3-yl)-4-methylphenyl)-5-(trifluoromethyl) pyrazine-2-carboxamide]	11000
CCOc1nnc(-c2cc(NC(=O)c3ccnc(C4(C(F)(F)F)CC4)c3)ccc2C)cc1C1CCOCC1 [Example 227, N-(3-(6-ethoxy-5-(tetrahydro-2H-pyran-4-yl)pyridazin-3-yl)-4-methylphenyl)-2-(1-(trifluoromethyl)cyclopropyl) isonicotinamide]	200
COc1ncc(-c2cc(NC(=O)c3cc(C(F)(F)F)cc(C(C)(C)N)n3)ccc2C)cc1C1(C(F)F)COC1 [Example 149, 6-(2-aminopropan-2-yl)-N-(3-(5-(3-(difluoromethyl)oxetan-3-yl)-6-methoxypyridin-3-yl)-4-methylphenyl)-4-(trifluoromethyl)picolin-amide]	871
Cc1ccc(NC(=O)c2cc(C(F)(F)F)ccn2)cc1-c1cc2c(c(C3CCOCC3)c1)NC(=O)C(C)(CO)O2 (single isomer, unassigned) [Example 193, N-(3-(2-(hydroxymethyl)-2-methyl-3-oxo-5-(tetrahydro-2H-pyran-4-yl)-3,4-dihydro-2H-benzo [b][1,4]oxazin-7-yl)-4-methylphenyl)-4-(trifluoromethyl) picolinamide carboxamide]	20
CCOc1ncc(-c2cc(NC(=O)c3cccc(C(F)(F)F)c3)cnc2C)cc1C1(C#N)CCOC1 (stereo not drawn) [Example 171, N-(5′-(3-cyanotetrahydrofuran-3-yl)-6′-ethoxy-2-methyl-[3,3′-bipyridin]-5-yl)-3-(trifluoromethyl) benzamide]	1000
Cc1ccc(NC(=O)c2cc(C(C)(C)C)nc(O)n2)cc1-c1cc(OCCO)nc(C2CCOCC2)c1 [Example 256, 6-(tert-butyl)-2-hydroxy-N-(3-(2-(2-hydroxyethoxy)-6-(tetrahydro-2H-pyran-4-yl)pyridin-4-yl)-4-methylphenyl)pyrimidine-4-carboxamide]	100
Cc1ccc(NC(=O)c2ccnc(C(C)(C)C#N)c2)cc1-c1cc(OCCO)nc(C2CCOCC2O)c1 (stereo not drawn) [Example 246]	6000
Cc1ncc(NC(=O)c2cccc(C(F)(F)F)c2)cc1-c1cc(C2(O)COC2)cc(C2(F)COC2)c1 [Example 139, N-(5-(3-(3-fluorooxetan-3-yl)-5-(3-hydroxyoxetan-3-yl)phenyl)-6-methylpyridin-3-yl)-3-(trifluoromethyl)benzamide]	1180
Cc1ccc(NC(=O)c2cc(Cl)ccn2)cc1-c1cc(OC[C@H](O)CO)nc(C2CCOCC2)c1 [Example 278, (R)-4-chloro-N-(3-(2-(2,3-dihydroxypropoxy)-6-(tetrahydro-2H-pyran-4-yl)pyridin-4-yl)-4-methylphenyl) picolinamide]	50
Cc1ccc(NC(=O)C2CCNC(C(F)(F)F)C2)cc1-c1cc(C2CCOCC2)nc(N2CCC(C)(N)CC2)c1 (stereo not drawn) [Example 320]	350000
Cc1ccc(NC(=O)c2ccnc(C(C)(C)C#N)c2)cc1-c1cc(C2(O)COC2)cc(C2(F)COC2)c1 [Example 138, 2-(2-cyanopropan-2-yl)-N-(3′-(3-fluorooxetan-3-yl)-5′-(3-hydroxyoxetan-3-yl)-6-methyl-[1,1′-biphenyl]-3-yl)isonicotinamide]	2190
CCOc1nnc(-c2cc(NC(=O)c3ccnc(C#N)c3)ccc2C)cc1C1CCOCC1 [Example 229, 2-cyano-N-(3-(6-ethoxy-5-(tetrahydro-2H-pyran-4-yl)pyridazin-3-yl)-4-methylphenyl)]	700
Cc1ccc(NC(=O)c2ccnc(C(C)(C)F)c2)cc1-c1cnc(OCCO)c(C2(F)COC2)c1 [Example 41, N-(3-(5-(3-fluorooxetan-3-yl)-6-(2-hydroxyethoxy)pyridin-3-yl)-4-methylphenyl)-2-(2-fluoropropan-2-yl)isonicotinamide]	245
Cc1ccc(NC(=O)c2cc(C(F)(F)F)ccn2)cc1-c1cc2c(c(C3CCOCC3)c1)OC(C)(CO)C(=O)N2 (stereo not drawn) [Example 202, N-(3-(2-(hydroxymethyl)-2-methyl-3-oxo-8-(tetrahydro-2H-pyran-4-yl)-3,4-dihydro-2H-benzo[b][1,4]oxazin-6-yl)-4-methylphenyl)-4-(trifluoromethyl) picolinamide]	300
CCOc1ncc(-c2cc(NC(=O)c3ccnc(C(C)(C)F)c3)cnc2C)cc1C1(F)CCOC1 (stereo not drawn) [Example 298, N-(6′-ethoxy-5′-(3-fluorotetrahydro-furan-3-yl)-2-methyl-[3,3′-bipyridin]-5-yl)-2-(2-fluoropropan-2-yl)isonicotinamide]	2000
Cc1ncc(NC(=O)c2cccc(C(F)(F)F)c2)cc1-c1cc(C2(C)COC2)c(=O)[nH]n1 [Example 15, N-(6-methyl-5-(5-(3-methyloxetan-3-yl)-6-oxo-1,6-dihydropyridazin-3-yl)pyridin-3-yl)-3-(trifluoromethyl)benzamide]	1000
Cc1ccc(NC(=O)c2ccc(CN)c(C(F)(F)F)c2)cc1-c1cccc(C2COC2)c1 [Example 5, 4-(aminomethyl)-N-(6-methyl-3′-(oxetan-3-yl)-[1,1′-biphenyl]-3-yl)-3-(trifluoromethyl)benzamide]	2000
CCOc1ncc(-c2cc(NC(=O)c3ccnc(C(C)(C)F)c3)cnc2C)cc1C1(O)CCOC1 (stereo not drawn) [Example 296, N-(6′-ethoxy-5′-(3-hydroxytetrahydro-furan-3-yl)-2-methyl-[3,3′-bipyridin]-5-yl)-2-(2-fluoropropan-2-yl)isonicotinamide]	4000

Next, values leading:

IC50 [pM]	SMILES
4350	Cc1ccc(NC(=O)c2ccnc(C(F)(F)F)c2)cc1-c1cc(C2(F)COC2)cc(OCCO)n1 [Example 47, N-(3-(4-(3-fluorooxetan-3-yl)-6-(2-hydroxyethoxy)pyridin-2-yl)-4-methylphenyl)-2-(trifluoromethyl)isonicotin-amide]
200	Cc1ccc(NC(=O)c2cc3cnccc3nc2C(F)(F)F)cc1-c1cc(OCCO)nc(C2CCOCC2)c1 [Example 255, N-(3-(2-(2-hydroxyethoxy)-6-(terahydro-2H-pyran-4-yl)pyridin-4-yl)-4-methylphenyl)-2-(trifluoromethyl)-1,6-naphthyridine-3-carboxamide]
80	Cc1ccc(NC(=O)c2cnnc(C(F)(F)F)c2)cc1-c1cc(OCCO)nc(C2(CF)CCOCC2)c1 [Example 212, N-(3-(2-(4-(fluoromethyl)tetrahydro-2H-pyran-4-yl)-6-(2-hydroxyethoxy)pyridin-4-yl)-4-methylphenyl)-6-(trifluoromethyl) pyridazine-4-carboxamide]
393	Cc1ccc(NC(=O)c2ccnc(C(F)(F)F)c2)cc1-c1cc(NCCO)nc(C2(O)CCOCC2)c1 [Example 287, N-(3-(2-((2-hydroxyethyl)amino)-6-(4-hydroxytetrahydro-2H-pyran-4-yl)pyridin-4-yl)-4-methylphenyl)-2-(trifluoromethyl)isonicotinamide]
300	COC1(c2cc(-c3cc(NC(=O)c4ccnc(C(F)(F)F)c4)ccc3C)cc(OCCO)n2)COC1 [Example 157, N-(3-(2-(2-hydroxyethoxy)-6-(3-methoxyoxetan-3-yl)pyridin-4-yl)-4-methylphenyl)-2-(trifluoromethyl)isonicotin-amide]
300	Cc1ccc(NC(=O)c2cnnc(C(F)(F)F)c2)cc1-c1cc(OCCO)nc(C2(CO)CCOCC2)c1 [Example 217]
684	Cc1ccc(NC(=O)c2ccnc(C(F)(F)F)c2)cc1-c1cc(C2CCOCC2)nc(N(CCO)CCO)c1 [Example 176]
281	Cc1ccc(NC(=O)c2ccnc(C(C)(F)F)c2)cc1-c1cc(OCCO)nc(C2(CF)COC2)c1 [Example 56, 2-(1,1-difluoroethyl)-N-(3-(2-(3-(fluoromethyl)oxetan-3-yl)-6-(2-hydroxyethoxy)pyridin-4-yl)-4-methylphenyl)isonicotin-amide]
795	Cc1ccc(NC(=O)c2ccnc(C(F)(F)F)c2)cc1-c1cc(OCCO)nc(C2CCOCC2)c1 [Example 190, N-(3-(2-(2-hydroxyethoxy)-6-(tetrahydro-2H-pyran-4-yl)pyridin-4-yl)-4-methylphenyl)-2-(trifluoromethyl) isonicotinamide]
5	COc1cc(C(=O)Nc2ccc(C)c(-c3cc(OCCO)nc(C4CCOCC4)c3)c2)ncn1 [Example 267, N-(3-(2-(2-hydroxyethoxy)-6-(tetrahydro-2H-pyran-4-yl)pyridin-4-yl)-4-methylphenyl)-6-methoxypyrimidine-4-carboxamide]
400	COC1(c2cc(-c3cc(NC(=O)c4ccnc(C(F)F)c4)ccc3C)cc(OCCO)n2)COC1 [Example 158, 2-(difluoromethyl)-N-(3-(2-(2-hydroxyethoxy)-6-(3-methoxyoxetan-3-yl)pyridin-4-yl)-4-methylphenyl)isonicotin-amide]
